The text below walks through data of paper PMC10746708, “A small molecule iCDM-34 identified by in silico screening suppresses HBV DNA through activation of aryl hydrocarbon receptor” (Cell Death Discovery, 2023).

In one series the test system is HBV genotype C. As to the kind of experiment: Anti-HBV activity in HBV-infected PXB cells (HBV DNA by qPCR). It counts as cell-based. As for the experimental part: (§1) PXB cells (primary cultured human hepatocytes) were purchased from PhoenixBio (Higashi-Hiroshima, Japan) and cultured on collagen type I-coated 96- or 24-well plates in hepatocyte clonal growth medium at 37 °C and 5 % CO2 as previously described. RealTime-Glo MT Cell Viability Assay (Promega) and XTT assay were performed according to a previously established protocol.
PXB cells were plated on 96-well plate and infected with three genome equivalents per cell of HBV C_AT [33], and the medium was changed every 3 or 4 days. […] After treatment with these compounds, cellular DNA, medium DNA, and total RNA were automatically purified as per our previously established protocol. RNA purification of total RNA from cultured cells in the 24-well plate was performed using the RNeasy Mini Kit (Qiagen, Germantown, MD, USA) according to the manufacturer’s instructions.
HBV DNA copy numbers were determined using TaqMan Gene Expression Master Mix (Thermo Fisher Scientific) or Probe qPCR Mix (Takara Bio), specific primers, and probes in a qPCR system (Light Cycler 96 System, Roche, Basel, Switzerland or CFX96 Touch Real-Time PCR Detection System, Bio-Rad Laboratories, Hercules, CA, USA). The specific primers and probe used for detection of HBV DNA were as follows: forward primer: 5′-[…]-3′, reverse primer: 5′-[…]-3′, and probe: 5′-[FAM] […][TAM]-3′.
(Quantitative PCR measures a nucleic acid by following its amplification.)

The nature of series [1]: Liver microsomal stability, human. Format: in vitro ADME. The following applies: human liver microsomes. As to the method: (§2) Liver microsome stability studies (human, mouse, and rat) were performed at Sumika Chemical Analysis Service (Osaka, Japan) by following an established procedure. A mixture of 1 μM of substrate, 0.5 mg protein/mL of microsomes, and […] β-NADPH was incubated for 30 or 60 min and % remaining substrate was quantitatively measured by LC-MS/MS.
For orientation: Liver microsomes are a subcellular fraction often used to study metabolism.

Series [2] in a line: Liver microsomal stability, rat. It counts as in vitro ADME. Conditions: rat liver microsomes. As to the method: as §2
Series [3] is described as follows: Liver microsomal stability, mouse. Format: in vitro ADME. The following applies: mouse liver microsomes. As to the method: as §2
A short description of series [4]: Metabolic analysis in vivo: blood concentration after injection. Conditions: PXB-mice (cDNA-uPA^wild/+/SCID), other: injection, human hepatocyte-chimeric mouse, blood at 5-480 min, n = 1, read-out: t1/2 in blood.
A further series deals with PXB cells. As to the kind of experiment: Cell viability of HBV-infected PXB cells (RealTime-Glo MT). Format: cell-based. Conditions: 3 and 30 µM, with or without 10 nM ETV, 7 days. As for the experimental part:
as §1

In a further series the test system is JAK/STAT signaling. As to the kind of experiment: Western blotting of phospho-STAT1, STAT2, STAT3 in HCV replicon cells. Format: cell-based, human. The following applies: 30 μM, 24 h. As for the experimental part: HCV replicon cells were treated with 30 μM CDM-3008, iCDM-17, and iCDM-34 for 1 day. The cells were lyzed with 1 x SDS sample buffer containing PhosStop, Complete EDTA free, and 1 mM EDTA. After sonication for 30 s, the lysates were centrifuged at 12,000g for 10 min at 4 °C, and then the supernatants were collected. After reducing the 20 μg of supernatants with 50 mM DTT at 98 °C for 2 min, the samples were separated by SDS-PAGE. STAT1, STAT2, STAT3, pSTAT1, pSTAT2, and pSTAT3 were detected by Western blotting using anti-STAT1 (9175, 1/1000), STAT2 (72604, 1/1000), STAT3 (12640, 1/1000), pSTAT1 (Y701) (7649, 1/1000), pSTAT2 (Y690) (88410, 1/1000), and pSTAT3 (Y705) (9145, 1/1000) antibodies (Cell signaling technology, Massachusetts, USA).
On the technique in general: A western blot detects proteins with antibodies after separation by electrophoresis.

In the next series the test system is AhR signaling pathway. In words: CYP mRNA qPCR in 3D cultured FLC-4 cells. Format: cell-based, human. The following applies: 1, 10 μM, 1 day. As to the method: The human hepatocellular carcinoma cell line FLC-4 was cultured on micro-space cell culture plates (Elplasia SQ-200, -100, -24, Kuraray, Tokyo, Japan) maintained at 37 °C and 5 % CO2 according to the manufacturer’s protocol. FLC-4 cells suspended in DMEM/Ham’s F12 medium supplemented with 10% heat-inactivated fetal bovine serum, 100 U/mL penicillin G, and 100 μg/mL streptomycin were seeded at a density of 8.0 × 10^5 cells/well and cultured for 3 days. The medium was replenished every 72 h, completely removed, and replaced with serum-free medium containing 1–10 µM iCDM-34 or vehicle (DMSO). Total RNA was isolated from cells and reverse transcribed complementary DNA was subjected to quantitative qPCR. mRNA expression was determined using TaqMan Gene Expression Assays (Hs00167927_m1 for CYP1A2, Hs00604506_m1 for CYP3A4, for Hs00426397_m1 for CYP2C9; Thermo Fisher Scientific, Waltham, MA, USA). Expression levels were determined using the 2^–ΔΔCt method and were normalized to endogenous GAPDH mRNA expression levels.

Another series has as its system HCV replicon cells. In words: AhR knockdown in HCV replicon cells, luciferase assay. Format: cell-based. Conditions: 30 μM, 2 days. As to the method: For knockdown of AhR in the HCV replicon cells, 2 ×10^4 cells of HCV replicon cells were mixed with AhR siRNA (siGENOME Human AHR siRNA – Smart pool, Horizon Discovery, Cambridgeshire, United Kingdom) and X-tremeGene 360 transfection reagent (Roche) and plated on 96 well plates. After 2 days of knockdown, the cells were treated with 30 μM iCDM-17, iCDM-34, and CDM-3008 for 2 days. The quantity of HCV replicons and cell viability were measured. The cellular RNA was purified using Agencourt RNAdvance (Beckman Coulter, San Jose, CA) and reverse-transcribed using PrimeScript RT master mix (Takara Bio, Kusatsu, Japan) to measure amount of AhR and β-actin mRNAs by quantitative PCR.

Where [5] appears, read: 1 μM substrate, 0.5 mg protein/mL, 30 min.
The mark [6] stands for this setting: 1 μM substrate, 0.5 mg protein/mL, 60 min.

As to `O=C(Nc1ccc(Br)cc1)c1ccn(Cn2cc([N+](=O)[O-])cn2)n1` [iCDM-34], the “medium HBV DNA” value in the series on HBV genotype C (30 µM, 7 days) was “inhibited”. Further, the “effect of combination with ETV on cellular HBV DNA” value with HBV genotype C (3 and 30 µM with 10 nM ETV, 7 days) is given as “additive effects”. Moreover, the “cellular HBV DNA” value in the series with HBV genotype C (3 and 30 µM, 7 days, dose-dependent) is reported as “decreased”. In addition, the IC50 with HBV genotype C (Hepatitis B virus, 168 h, HBV genotype C-infected PXB cells, 0.03–100 µM for 7 days, qPCR, read-out: half maximal inhibitory concentration, cellular HBV DNA) was determined as 19.7 µM. Further, the half-life at 1 μM in series [1] was determined as 8.43 h; in [2] it was 3.32 h; in series [3], 0.552 h. Moreover, the results for the share remaining at 0.5 h, 1 μM in series [1] (setting [5]), in series [2] (setting [5]) and in series [3] (setting [5]) were 96.2 ± 3.2%, 90.2 ± 0.5% and 41.2 ± 0.4%, respectively. Moreover, the share remaining (commonly the share of the starting amount still present when the sample was taken) at 1 h, 1 μM in series [1] (setting [6]) amounted to 94.1 ± 3.3%; in series [2] (setting [6]), 85.2 ± 0.3%; in series [3] (setting [6]), 21 ± 0.8%. Moreover, the half-life in series [4] was found to be 0.383 h. The “cytotoxicity (cell viability)” value with PXB cells is “no cytotoxicity”. The “phosphorylation of STAT1, STAT2, and STAT3” value in the series on JAK/STAT signaling was “not induced”. In the series with AhR signaling pathway, the “CYP1A2 mRNA expression” value was “increased expression”. Besides, the “anti-HCV activity (HCV replicon RNA) with AhR siRNA” value in the series with HCV replicon cells (AhR siRNA) is “not present”. In the series on HCV replicon cells (control siRNA), the “anti-HCV activity (HCV replicon RNA) with control siRNA” value is “significant anti-HCV activity”.
